Assay results taken from patent US9426996B2, “Use of benzoxaboroles as volatile antimicrobial agents on meats, plants, or plant parts” (AgroFresh Inc., priority 2013, dated 2016).

Assays:
Botrytis cinerea [1] = test: combination treatment with 1-MCP on white roses; type: in vivo; conditions: 1-MCP 500 ppb v/v for 24 hours, no Compound A
Experimental: To evaluate a combination treatment of Compound A with 1-methylcyclopropene (1-MCP), an in vivo experiment is performed on white roses.
Five white roses are placed in an 800 mL jar containing 200 mL of a common commercial flower preservative. Three jars are then placed in a 117 L Rubbermaid storage box (Cat #2244). Two small fans are placed in opposite ends of the container to assist with the distribution of the two volatiles. A 500 parts per billion (ppb) volume per volume (v/v) 1-MCP treatment is applied (AgroFresh, Springhouse, Pa.) for 24 hours at 21° C. After the 1-MCP treatment is completed, the containers are vented, and Compound A powder is applied in a dose dependent manner to achieve a final headspace concentration of 0.2, 0.04, or 0.008 mg/L with a sublimation device (copper tube heated to 200° C. with fan flow at 0.5 L/min), with the end of the tube penetrating through a ½ inch side port in the container that is sealed immediately after the application. The flowers are incubated for three days at 21° C. After treatment, the flowers are evaluated for an additional seven days at 21° C. for disease incidence and severity of the flower petals.

Alternaria alternata [2] = test: combination treatment with 1-MCP on broccoli; type: in vivo; parameters: scale not given here; conditions: 1-MCP alone, 21° C.
Experimental: To evaluate a combination treatment of Compound A with 1-methylcyclopropene (1-MCP), an in vivo experiment is performed on broccoli.
Broccoli flowers are inoculated with 1×10^6 spores/mL of Alternaria alternata and then placed in a 117 L Rubbermaid storage box (Cat #2244) with two small fans placed in opposite ends of the container. A 500 ppb v/v 1-MCP treatment is applied (AgroFresh, Springhouse, Pa.) for 24 hours at 1° C. After completion of the 1-MCP treatment, broccoli florets are removed and placed in a 10.8-cup SnapWare airtight container (Model #109842). Compound A powder is applied in a dose dependent manner to achieve a final headspace concentration of 2 or 0.4 mg/L with a sublimation device (copper tube heated to 200° C. with fan flow at 0.5 L/min), with the end of the tube penetrating through a ½ inch side port in the container that is sealed immediately after the application. The florets are incubated for five days at 10° C. or three days at 21° C., then evaluated for an additional five days at 21° C. for disease incidence and severity.

Alternaria alternata [3] = test: combination treatment with 1-MCP on broccoli; type: in vivo; parameters: scale not given here; conditions: 1-MCP alone, 11 C.
Alternaria alternata [4] = test: combination treatment with 1-MCP on tomato; type: in vivo; conditions: tomatoes; 1-MCP 1000 ppb v/v alone
Experimental: Each tomato fruit is wounded three times and inoculated with 1×10^6 spores/mL of Alternaria alternata and then placed in a 117 L Rubbermaid storage box (Cat #2244) with two small fans placed in opposite ends of the container. A 1000 ppb v/v 1-MCP treatment is applied (AgroFresh, Springhouse, Pa.) for 24 hours at 21° C. After completion of the 1-MCP treatment, the tomatoes are removed and placed in a 10.8-cup […] airtight container (Model #109842). […] The tomatoes are incubated for three days at 21° C., then evaluated for an additional three days at 21° C. for disease incidence and severity. Results listed in Table 29 show good activity against Alternaria alternata infection of tomato.

Botrytis cinerea [5] = test: in vitro inhibition assay for volatile antimicrobial compounds (12-well PDA plates); type: cell-based; conditions: in vitro; volatile; 14 days at 4° C.
Experimental: 12-Well (7 milliliter (mL volume per well) microtiter plates are used for the in vitro inhibition assay for volatile antimicrobial compounds. A 3-mL volume of full-strength Potato Dextrose Agar (PDA) is added to each well. After cooling, 1 microliter (μL) of 1×10^6 per mL Botrytis cinerea spore suspension is spot pipetted to the center of the agar. For the first experiment, inoculated plates are allowed to germinate for 5 days at 4° C. For the second experiment, plates are inoculated immediately prior to volatile fungicide treatment. Small Whatman #1 filter disks (Cat. No. 1001-0155) are placed, in duplicate, on the underside of a polyethylene PCR plate sealing film.
The acetone is permitted to evaporate for 5 minutes. The headspace around the Botrytis cinerea inoculum is then sealed inside the well by the film with the adhering disk containing the fungicide. Plates are inverted, placed over the treated disks and sealed to prevent any of the chemical from flaking from the disk and falling onto the inoculated agar. After 14 days of storage at 4° C., cultures are evaluated for percent growth relative to control. Regardless of whether the spores had germinated for 5 days, or if the treatment commenced soon after inoculation of the plates (˜15 minutes); there is 100% control of the fungal pathogen down to 0.005 mg.
A total of 14 antimicrobial compounds are tested using the in vitro inhibition assay described in Example 1. All 14 compounds are applied to the Whatman disks, in duplicate, in a dose dependent manner (0.31 to 0.0006 mg/disk). […] Other compounds, such as Compound C, Compound D, and Compound E conferred 100% control down to 0.023, 0.04, and 0.08 mg/disk, respectively. Results of nine compounds are summarized in Table 2, where the other five compounds show no detected activity in the ranges tested. […]

Penicillium digitatum [6] = test: in vivo sublimation bioassay on fruit, 1 mg/L (Example 31)
Experimental: (§1) To assess the in vivo activity of volatile antimicrobial Compounds A and B (FIG. 1) in fruit, a volatile bioassay is developed using apple, pear, orange, strawberry, grape and blueberry.
(§2) Two apples, 2 oranges, 2 pears, 8 strawberries, 16 grapes or 30 blueberries (per replicate, in duplicate) are placed in a clamshell with the stem end facing up for all fruits except for strawberry (stem end facing downwards). A fresh wound is inoculated with 20 μL 1×10^6 per mL Penicillium expansum spore suspension (apple and pear), 20 μL 1×10^6 per mL Penicillium digitatum spore suspension (orange), and 20 μL (strawberry and grape) or 10 μL (blueberry) of 1×10^6 per mL Botrytis cinerea spore suspension. The clamshells are placed inside a 117 L Rubbermaid storage box (Cat #2244) with lids closed. […] After treatment, fruits are held for an additional three days at 21° C., then evaluated for disease incidence (mm diameter of browning or water-soaked lesions) and pathogen sporulation (mm diameter) for apple, pear and orange, as well as Botrytis cinerea disease incidence (%) and severity (0 to 4) for strawberry, grape and blueberry, with results summarized in Table 30.

Botrytis cinerea [7] = test: as above; conditions: for Incidence (%) / Severity (0-4): 1 mg/L sublimed, three day treatment plus three days at 21° C.
Experimental: as §1, §2

Penicillium expansum = test: as above; conditions: 1 mg/L sublimed, three day treatment plus three days at 21° C.
Experimental: as §1, §2

Botrytis cinerea [8] = test: in vivo volatile bioassay using strawberry
Experimental: In order to assess the in vivo activity of volatile antimicrobial compounds, a volatile bioassay is developed using strawberry. Two fruit are placed inside a 240 mL jar, with the calyx facing downwards. […] The acetone is permitted to evaporate for 5 minutes. The jars are then capped with the lids containing the fungicide, and placed for 5 days at 21° C. After storage, fruit are evaluated for incidence and severity of disease and appearance of phytotoxicity.

Penicillium digitatum [9] = test: in vivo volatile bioassay using orange (Compound B, sublimation); conditions: for Sporulation (mm) / Water soaked lesions (mm): oranges
Experimental: Two oranges per replicate are placed inside a clamshell. Three fresh wounds per orange are inoculated with 30 μL of 1×10^6 per mL Penicillium digitatum spore suspension. The clamshells are placed inside a 10.8-cup SnapWare airtight container (Model #109842). […] After storage, fruits are evaluated for disease incidence (mm diameter of the rot) and pathogen sporulation (mm diameter) on the surface of the fruits for an additional three days at 21° C., with results summarized in Table 20.

[10] = Orange, 1 mg/L sublimed, three day treatment plus three days at 21° C.

CC1=CC1 [Compound 1-MCP, 1-methylcyclopropene, reference compound]
Incidence (%) (Botrytis cinerea [1]): 33.3% | Severity (0-4) (Botrytis cinerea [1]): 0.4 | Color Score (Alternaria alternata [2]): 1.79 | Severity (Alternaria alternata [2]): 0.61 | Color Score (Alternaria alternata [3]): 1.50 | Severity (Alternaria alternata [3]): 0.18 | Diameter of the rot (mm) (Alternaria alternata [4]): 13.6 mm

OB1OCc2ccccc21 [Compound B, 2-(hydroxymethyl)phenylboronic acid cyclic monoester]
lowest rate with 100% control of Botrytis cinerea (Botrytis cinerea [5]): 0.0078 mg/disk | in vivo antimicrobial control of P. digitatum (Penicillium digitatum [6]; 1 mg/L, volatile fungicide): 100% | Sporulation (mm) (Penicillium digitatum [6]; [10]): 0.0 mm | Water soaked lesion (Penicillium digitatum [6]; [10]): 0.0 mm | in vivo antimicrobial control of B. cinerea (Botrytis cinerea [7]; 1 mg/L, volatile fungicide on different hosts): 100% | Incidence (%) (Botrytis cinerea [7]; Blueberry): 0.0% | Severity (0-4) (Botrytis cinerea [7]; Blueberry): 0.0 | Incidence (%) (Botrytis cinerea [7]; Grape): 0.0% | Severity (0-4) (Botrytis cinerea [7]; Grape): 0.0 | Incidence (%) (Botrytis cinerea [7]; Strawberry): 0.0% | Severity (0-4) (Botrytis cinerea [7]; Strawberry): 0.0 | Browning (mm) (Penicillium expansum; Apple): 2.3 mm | Sporulation (mm) (Penicillium expansum; Apple): 0.2 mm | Browning (mm) (Penicillium expansum; Pear): 1.1 mm | Sporulation (mm) (Penicillium expansum; Pear): 0.0 mm | Percent (%) Incidence of Botrytis cinerea on Strawberry (in vivo) (Botrytis cinerea [8]; 0.005 mg/disk, 5 days at 21° C.): 100% | Percent (%) Incidence of Botrytis cinerea on Strawberry (in vivo) (Botrytis cinerea [8]; 0.01 mg/disk, 5 days at 21° C.): 100% | Percent (%) Incidence of Botrytis cinerea on Strawberry (in vivo) (Botrytis cinerea [8]; 0.02 mg/disk, 5 days at 21° C.): 100% | Percent (%) Incidence of Botrytis cinerea on Strawberry (in vivo) (Botrytis cinerea [8]; 0.04 mg/disk, 5 days at 21° C.): 75% | Percent (%) Incidence of Botrytis cinerea on Strawberry (in vivo) (Botrytis cinerea [8]; 0.08 mg/disk, 5 days at 21° C.): 50% | Percent (%) Incidence of Botrytis cinerea on Strawberry (in vivo) (Botrytis cinerea [8]; 0.16 mg/disk, 5 days at 21° C.): 25% | Percent (%) Incidence of Botrytis cinerea on Strawberry (in vivo) (Botrytis cinerea [8]; 0.32 mg/disk, 5 days at 21° C.): 0% | Percent (%) Incidence of Botrytis cinerea on Strawberry (in vivo) (Botrytis cinerea [8]; 0.64 mg/disk, 5 days at 21° C.): 0% | Percent (%) Incidence of Botrytis cinerea on Strawberry (in vivo) (Botrytis cinerea [8]; 1.25 mg/disk, 5 days at 21° C.): 0% | Percent (%) Incidence of Botrytis cinerea on Strawberry (in vivo) (Botrytis cinerea [8]; 2.5 mg/disk, 5 days at 21° C.): 0% | lowest rate with 100% control of Botrytis cinerea (Botrytis cinerea [8]; strawberry, 5 days at 21° C.): 0.32 mg/disk | appearance of phytotoxicity (Botrytis cinerea [8]; strawberry, any of the rates evaluated (2.5 to 0.005 mg/disk)): no evidence of phytotoxicity | in vivo volatile inhibition of P. digitatum in orange (Penicillium digitatum [9]; 10 mg/L): complete inhibition | Sporulation (mm) (Penicillium digitatum [9]; 0.4 mg/L, Day 0): 0.7 mm | Water soaked lesions (mm) (Penicillium digitatum [9]; 0.4 mg/L, Day 0): 5.7 mm | Sporulation (mm) (Penicillium digitatum [9]; 0.4 mg/L, Day 1): 1.4 mm | Water soaked lesions (mm) (Penicillium digitatum [9]; 0.4 mg/L, Day 1): 29.4 mm | Sporulation (mm) (Penicillium digitatum [9]; 0.4 mg/L, Day 2): 8.1 mm | Water soaked lesions (mm) (Penicillium digitatum [9]; 0.4 mg/L, Day 2): 49.3 mm | Sporulation (mm) (Penicillium digitatum [9]; 0.4 mg/L, Day 3): 27.2 mm | Water soaked lesions (mm) (Penicillium digitatum [9]; 0.4 mg/L, Day 3): 63.4 mm | Sporulation (mm) (Penicillium digitatum [9]; 2 mg/L, Day 0): 0 mm | Water soaked lesions (mm) (Penicillium digitatum [9]; 2 mg/L, Day 0): 0.5 mm | Sporulation (mm) (Penicillium digitatum [9]; 2 mg/L, Day 1): 0.3 mm | Water soaked lesions (mm) (Penicillium digitatum [9]; 2 mg/L, Day 1): 7.8 mm | Sporulation (mm) (Penicillium digitatum [9]; 2 mg/L, Day 2): 2.8 mm | Water soaked lesions (mm) (Penicillium digitatum [9]; 2 mg/L, Day 2): 30.7 mm | Sporulation (mm) (Penicillium digitatum [9]; 2 mg/L, Day 3): 5.7 mm | Water soaked lesions (mm) (Penicillium digitatum [9]; 2 mg/L, Day 3): 42.6 mm | Sporulation (mm) (Penicillium digitatum [9]; 10 mg/L, Day 0): 0 mm | Water soaked lesions (mm) (Penicillium digitatum [9]; 10 mg/L, Day 0): 0 mm | Sporulation (mm) (Penicillium digitatum [9]; 10 mg/L, Day 1): 0 mm | Water soaked lesions (mm) (Penicillium digitatum [9]; 10 mg/L, Day 1): 0 mm | Sporulation (mm) (Penicillium digitatum [9]; 10 mg/L, Day 2): 0 mm | Water soaked lesions (mm) (Penicillium digitatum [9]; 10 mg/L, Day 2): 0 mm | Sporulation (mm) (Penicillium digitatum [9]; 10 mg/L, Day 3): 0 mm | Water soaked lesions (mm) (Penicillium digitatum [9]; 10 mg/L, Day 3): 0.8 mm | Sporulation (mm) (Penicillium digitatum [9]; 50 mg/L, Day 0): 0 mm | Water soaked lesions (mm) (Penicillium digitatum [9]; 50 mg/L, Day 0): 0 mm | Sporulation (mm) (Penicillium digitatum [9]; 50 mg/L, Day 1): 0 mm | Water soaked lesions (mm) (Penicillium digitatum [9]; 50 mg/L, Day 1): 0 mm | Sporulation (mm) (Penicillium digitatum [9]; 50 mg/L, Day 2): 0 mm | Water soaked lesions (mm) (Penicillium digitatum [9]; 50 mg/L, Day 2): 0 mm | Sporulation (mm) (Penicillium digitatum [9]; 50 mg/L, Day 3): 0 mm | Water soaked lesions (mm) (Penicillium digitatum [9]; 50 mg/L, Day 3): 0 mm
